Source: patent publication US8168860B2, “Compositions and methods for the modification of physiological responses in plants” (Rohm and Haas Company, priority 2007, dated 2012)

Experiments:
[1] = test system: tomato seedlings (WT, p1002-18, p1003-16); test: Tomato seedling growth on 20 μM inducer and various levels of ACC; format: in vivo; settings: 20 μM inducer; for Hypocotyl (mm) / Root (mm): 14 day old seedlings
ACC oxidase = ACC oxidase expression in excised corn stalk sheath tissue, quantitative PCR; format: cell-based; settings: for ACC Oxidase Expression (relative): normalized to 0 inducer/0 ACC; for AVG ACO Expression: average of corn lines
Procedure: Corn plants were transformed using the plasmids for Example 1 by microparticle bombardment. Putative transformants were selected using either actinonin or bialaphos and confirmed by PCR analysis. Positive transformants were backcrossed to inbred B73 to increase vigor. Transgenic corn plants produced as described above were tested for modulation of ethylene sensitivity. Modulation of ethylene sensitivity was determined at the molecular level by exposing plants to ethylene and measuring the change in induction of ethylene-induced genes.
Transgenic corn plants produced as described above were tested for modulation of ethylene sensitivity. Modulation of ethylene sensitivity was determined at the molecular level by exposing plants to ACC, the precursor of ethylene and measuring the change in induction of ethylene-induced genes. Stalk sheath tissue was excised from transgenic T0 corn plants growing in a green house and used in an in vitro bioassay. Excised tissue was treated with either water or 20 μM inducer for 2 days to induce expression of the ethylene insensitive etr1-1 transgene. Following the 2 day induction period, the tissue was treated for one day with 0, 1 or 10 μM ACC to produce ethylene and then harvested. Harvested tissue was immediately placed in RNAlater (Ambion). Total RNA was prepared from the tissue using MagMAX-96 Total RNA Isolation Kit (Ambion). Induction of an ethylene inducible gene (ACC oxidase) was measured using quantitative PCR on an Applied Biosystems 7900 HT Fast Real-Time PCR system (ABI). TaqMan Assay Kit (ABI) was used for reverse transcriptase (RT) and PCR using manufacturer recommended protocols. Corn 18s was used as an internal control to normalize expression for each sample.
Sequences for the primers and probes were as follows: […]
In order to determine gene expression, ACC oxidase expression in the 0 μM inducer plus 0 μM ACC control treatment was normalized for each respective corn line.

[2] = test system: Wild-type, ein2-5 and p1002 Arabidopsis transformant seedlings; test: Triple response assay, Arabidopsis seedlings, root and hypocotyl growth with ethylene; format: in vivo; settings: for Roots (mm) Avg / Hypocotyls (mm) Avg: 11 days
Procedure: A triple response assay (Guzman and Ecker, 1990 cited above, modified as described below) was used to determine the modulation of ethylene sensitivity in the transformed Arabidopsis plants of Example 4. Arabidopsis seed was surface-sterilized and imbibed in 20 μM inducer in the dark for 4 days at 4° C. The seed was plated on 0.5× MS with 1% sucrose and 20 μM inducer and for mutant receptors treated with 10 ppm ethylene or 1 ppm ethylene for wild-type receptors and grown in the dark for 4-8 days at 21° C. The response to ethylene was scored on the last day.
Wild-type, ein2-5 (an ethylene insensitive mutant control), and p1002 Arabidopsis transformant seedlings were assayed for ethylene insensitivity using the triple response assay (Guzman and Ecker, 1990, cited above, with the following modifications) in which seeds were germinated on 0.5× MS media for 11 days in the dark in the presence of 10 ppm ethylene. Root and hypocotyl growth is inhibited by ethylene in ethylene sensitive but not in ethylene insensitive seedlings.

[3] = Arabidopsis, presence of inducer, 10 ppm ethylene
[4] = Ein2-5 seedlings, 20 μM inducer, 10 ppm ethylene, dark
[5] = WT seedlings, 20 μM inducer, 10 ppm ethylene, dark
[6] = p1002-1-4 seedlings, 20 μM inducer, 10 ppm ethylene, dark
[7] = p1002-3-4 seedlings, 20 μM inducer, 10 ppm ethylene, dark
[8] = p1002-11-3 seedlings, 20 μM inducer, 10 ppm ethylene, dark
[9] = p1002-23-2 seedlings, 20 μM inducer, 10 ppm ethylene, dark
[10] = p1002-24-4 seedlings, 20 μM inducer, 10 ppm ethylene, dark

CCC(N(NC(=O)c1ccc2c(c1C)O[C@@H](CO)CO2)C(=O)c1cc(C)cc(C)c1)C(C)(C)C (stereo partly drawn) [inducer, 3,5 Dimethyl-benzoic acid N-(1-ethyl-2,2-dimethyl-propyl)-N′-(3S-hydroxymethyl-5-methyl-2,3-dihydro-benzo[1,4]dioxine-6-carbonyl)hydrazide]
Hypocotyl (mm) ([1]; WT tomato, 5 μM Ag): 41.4 ± 8.20 mm
Root (mm) ([1]; WT tomato, 5 μM Ag): 22.3 ± 5.66 mm
Hypocotyl (mm) ([1]; WT tomato, ACC 0 μM): 36.4 ± 9.44 mm
Root (mm) ([1]; WT tomato, ACC 0 μM): 28.8 ± 6.26 mm
Hypocotyl (mm) ([1]; WT tomato, ACC 1 μM): 25.9 ± 12.7 mm
Root (mm) ([1]; WT tomato, ACC 1 μM): 14.4 ± 9.42 mm
Hypocotyl (mm) ([1]; WT tomato, ACC 2.5 μM): 11.3 ± 6.25 mm
Root (mm) ([1]; WT tomato, ACC 2.5 μM): 12.3 ± 9.41 mm
Hypocotyl (mm) ([1]; WT tomato, ACC 5 μM): 8.50 ± 4.35 mm
Root (mm) ([1]; WT tomato, ACC 5 μM): 10.4 ± 8.73 mm
Hypocotyl (mm) ([1]; WT tomato, ACC 10 μM): 7.71 ± 1.20 mm
Root (mm) ([1]; WT tomato, ACC 10 μM): 13.1 ± 10.8 mm
Hypocotyl (mm) ([1]; WT tomato, ACC 20 μM): 3.21 ± 1.19 mm
Root (mm) ([1]; WT tomato, ACC 20 μM): 11.2 ± 9.40 mm
Hypocotyl (mm) ([1]; p1002-18 tomato, 5 μM Ag): 38.2 ± 6.85 mm
Root (mm) ([1]; p1002-18 tomato, 5 μM Ag): 31.6 ± 5.68 mm
Hypocotyl (mm) ([1]; p1002-18 tomato, ACC 0 μM): 40.7 ± 9.50 mm
Root (mm) ([1]; p1002-18 tomato, ACC 0 μM): 30.9 ± 7.14 mm
Hypocotyl (mm) ([1]; p1002-18 tomato, ACC 1 μM): 28.4 ± 18.0 mm
Root (mm) ([1]; p1002-18 tomato, ACC 1 μM): 24.7 ± 7.53 mm
Hypocotyl (mm) ([1]; p1002-18 tomato, ACC 2.5 μM): 29.4 ± 15.0 mm
Root (mm) ([1]; p1002-18 tomato, ACC 2.5 μM): 25.8 ± 8.50 mm
Hypocotyl (mm) ([1]; p1002-18 tomato, ACC 5 μM): 27.3 ± 9.03 mm
Root (mm) ([1]; p1002-18 tomato, ACC 5 μM): 24.0 ± 7.77 mm
Hypocotyl (mm) ([1]; p1002-18 tomato, ACC 10 μM): 28.0 ± 14.1 mm
Root (mm) ([1]; p1002-18 tomato, ACC 10 μM): 24.8 ± 6.03 mm
Hypocotyl (mm) ([1]; p1002-18 tomato, ACC 20 μM): 26.5 ± 15.1 mm
Root (mm) ([1]; p1002-18 tomato, ACC 20 μM): 24.1 ± 3.98 mm
Hypocotyl (mm) ([1]; p1003-16 tomato, 5 μM Ag): 36.3 ± 9.08 mm
Root (mm) ([1]; p1003-16 tomato, 5 μM Ag): 23.8 ± 4.92 mm
Hypocotyl (mm) ([1]; p1003-16 tomato, ACC 0 μM): 39.8 ± 17.1 mm
Root (mm) ([1]; p1003-16 tomato, ACC 0 μM): 18.7 ± 3.94 mm
Hypocotyl (mm) ([1]; p1003-16 tomato, ACC 1 μM): 39.3 ± 11.0 mm
Root (mm) ([1]; p1003-16 tomato, ACC 1 μM): 18.2 ± 716 mm
Hypocotyl (mm) ([1]; p1003-16 tomato, ACC 2.5 μM): 38.9 ± 18.2 mm
Root (mm) ([1]; p1003-16 tomato, ACC 2.5 μM): 12.9 ± 8.61 mm
Hypocotyl (mm) ([1]; p1003-16 tomato, ACC 5 μM): 33.0 ± 15.2 mm
Root (mm) ([1]; p1003-16 tomato, ACC 5 μM): 12.9 ± 9.36 mm
Hypocotyl (mm) ([1]; p1003-16 tomato, ACC 10 μM): 29.7 ± 18.8 mm
Root (mm) ([1]; p1003-16 tomato, ACC 10 μM): 12.7 ± 12.1 mm
Hypocotyl (mm) ([1]; p1003-16 tomato, ACC 20 μM): 24.3 ± 15.2 mm
Root (mm) ([1]; p1003-16 tomato, ACC 20 μM): 13.0 ± 7.92 mm
induction of ethylene insensitivity over ACC concentrations ([1]; tomato p1002 and p1003 line, ACC 1.0-20 μM): induction of ethylene insensitivity occurred across the range of ACC concentrations tested
ACC Oxidase Expression (relative) (ACC oxidase; Corn Line 4.5, 20 μM inducer/0 ACC): 1.351
ACC Oxidase Expression (relative) (ACC oxidase; Corn Line 4.5, 20 μM inducer/1 μM ACC): 1.081
ACC Oxidase Expression (relative) (ACC oxidase; Corn Line 4.5, 20 μM inducer/10 μM ACC): 0.4184
ACC Oxidase Expression (relative) (ACC oxidase; Corn Line 4.6, 20 μM inducer/0 ACC): 1.148
ACC Oxidase Expression (relative) (ACC oxidase; Corn Line 4.6, 20 μM inducer/1 μM ACC): 0.7581
ACC Oxidase Expression (relative) (ACC oxidase; Corn Line 4.6, 20 μM inducer/10 μM ACC): 0.3348
ACC Oxidase Expression (relative) (ACC oxidase; Corn Line 4.7, 20 μM inducer/0 ACC): 0.7452
ACC Oxidase Expression (relative) (ACC oxidase; Corn Line 4.7, 20 μM inducer/1 μM ACC): 1.388
ACC Oxidase Expression (relative) (ACC oxidase; Corn Line 4.7, 20 μM inducer/10 μM ACC): 0.2557
ACC Oxidase Expression (relative) (ACC oxidase; Corn Line 10.2, 20 μM inducer/0 ACC): 1.378
ACC Oxidase Expression (relative) (ACC oxidase; Corn Line 10.2, 20 μM inducer/1 μM ACC): 0.4928
ACC Oxidase Expression (relative) (ACC oxidase; Corn Line 10.2, 20 μM inducer/10 μM ACC): 0.6761
ACC Oxidase Expression (relative) (ACC oxidase; Corn Line 10.4, 20 μM inducer/0 ACC): 0.3437
ACC Oxidase Expression (relative) (ACC oxidase; Corn Line 10.4, 20 μM inducer/1 μM ACC): 0.3591
ACC Oxidase Expression (relative) (ACC oxidase; Corn Line 10.4, 20 μM inducer/10 μM ACC): 1.821
ACC Oxidase Expression (relative) (ACC oxidase; Corn Line 10.5, 20 μM inducer/0 ACC): 0.6804
ACC Oxidase Expression (relative) (ACC oxidase; Corn Line 10.5, 20 μM inducer/1 μM ACC): 0.06813
ACC Oxidase Expression (relative) (ACC oxidase; Corn Line 10.5, 20 μM inducer/10 μM ACC): 0.1983
ACC Oxidase Expression (relative) (ACC oxidase; Corn Line B73, 20 μM inducer/0 ACC): 1.964
ACC Oxidase Expression (relative) (ACC oxidase; Corn Line B73, 20 μM inducer/1 μM ACC): 0.09506
ACC Oxidase Expression (relative) (ACC oxidase; Corn Line B73, 20 μM inducer/10 μM ACC): 0.2589
AVG ACO Expression (ACC oxidase; 20 μM inducer/0 ACC): 1.087
AVG ACO Expression (ACC oxidase; 20 μM inducer/1 μM ACC): 0.6061
AVG ACO Expression (ACC oxidase; 20 μM inducer/10 μM ACC): 0.5662
average expression of ACC oxidase in the transgenic corn lines (ACC oxidase; presence of inducer plus ACC): repressed
ethylene insensitivity, based on decreased expression of ethylene inducible genes (ACC oxidase; transgenic corn with etr1-1 cassettes, presence of inducing compound, exposed to ethylene): demonstrated ethylene insensitivity
root length of most p1002 transformants versus wild-type or ein2 mutant seedlings ([2]; Arabidopsis, inducer in the presence of silver, 10 ppm ethylene): not significantly longer
effect on hypocotyls of p1002 transformants [2, 3]: No effect was observed
root length of p1002 transformants relative to wild-type seedlings [2, 3]: significantly longer
Roots (mm) Avg ([2]; Ein2-5 seedlings, 20 μM inducer + 5 μM AgNO3, 10 ppm ethylene, dark): 12.4 mm
Hypocotyls (mm) Avg [2, 4]: ~30 mm
Roots (mm) Avg [2, 4]: 19.9 mm
Roots (mm) Avg ([2]; WT seedlings, 20 μM inducer + 5 μM AgNO3, 10 ppm ethylene, dark): 13.9 mm
Hypocotyls (mm) Avg [2, 5]: 12 mm
Roots (mm) Avg [2, 5]: 3.92 mm
Roots (mm) Avg ([2]; p1002-1-4 seedlings, 20 μM inducer + 5 μM AgNO3, 10 ppm ethylene, dark): 11.8 mm
Hypocotyls (mm) Avg [2, 6]: 12.3 mm
Roots (mm) Avg [2, 6]: 5.8 mm
Roots (mm) Avg ([2]; p1002-3-4 seedlings, 20 μM inducer + 5 μM AgNO3, 10 ppm ethylene, dark): 17.4 mm
Hypocotyls (mm) Avg [2, 7]: 12.7 mm
Roots (mm) Avg [2, 7]: 6.7 mm
Roots (mm) Avg ([2]; p1002-11-3 seedlings, 20 μM inducer + 5 μM AgNO3, 10 ppm ethylene, dark): 11.7 mm
Hypocotyls (mm) Avg [2, 8]: 12.1 mm
Roots (mm) Avg [2, 8]: 5.6 mm
Roots (mm) Avg ([2]; p1002-23-2 seedlings, 20 μM inducer + 5 μM AgNO3, 10 ppm ethylene, dark): 10.5 mm
Hypocotyls (mm) Avg [2, 9]: 12.1 mm
Roots (mm) Avg [2, 9]: 6.04 mm
Roots (mm) Avg ([2]; p1002-24-4 seedlings, 20 μM inducer + 5 μM AgNO3, 10 ppm ethylene, dark): 13.1 mm
Hypocotyls (mm) Avg [2, 10]: 12.2 mm
Roots (mm) Avg [2, 10]: 4.96 mm
ethylene insensitivity, based on increased shoot length and/or altered root growth compared to non-induced transgenic plants ([2]; transgenic Arabidopsis with etr1-1 cassettes, 20 μM inducer, ethylene, dark, 4-8 days): demonstrated ethylene insensitivity
